Measurements taken from patent publication US7803992B2, “Methods and compositions for expressing an herbicide-tolerant polynucleotide” (Pioneer Hi-Bred International, Inc., priority 2005, dated 2010).

Assays:
[1] = system: GAT-HRA transgenic cotton plants; test: Greenhouse over the top herbicide spray of cotton; type: in vivo, Gossypium hirsutum; settings: glyphosate 1.5 lb acid equivalent per acre at 4-6 leaf stage; 14 days after application
Source text: (§1) Transformed cotton plants were rooted and then transferred to soil for further growth. Plants were then subjected to herbicide spray treatments in a greenhouse. […] Untransformed Coker 312 control plants were dead 2 weeks after glyphosate application. […] Plants transformed with both GAT and HRA were further subjected to an “over the top” application of the sulfonylurea herbicide rimsulfuron at a rate of 16 g active ingredient/hectare. […] In further experiments 32 g ai/ha rimsulfuron were applied to the cotton.

[2] = system: Untransformed Coker 312 cotton; test: Greenhouse over the top herbicide spray of cotton; type: in vivo, Gossypium hirsutum; settings: glyphosate 1.5 lb ae/acre, 2 weeks after application; rimsulfuron 16 g active ingredient/hectare without glyphosate
Source text: as §1

[3] = system: Wild Type soybeans (Jack); test: Postemergence herbicide treatment of soybeans in greenhouse, visual injury; type: in vivo, soybean; settings: postemergence, glyphosate 8960, tribenuron-methyl 35, rimsulfuron 35 g/ha
Protocol: (§2) Young regenerated transgenic plants were sprayed with 1× glyphosate (1× rate of glyphosate is 1120 g/ha of glyphosate isopropylamine) to cull segregants. Four replications were performed for each treatment. Plants were then treated with various herbicides, including glyphosate and ALS-inhibitor herbicides.
(§3) Six soybean seeds from each variety to be assayed were planted 1 cm deep in 5.5 (13.97 cm) inch square plastic container of a synthetic growth medium. […] When possible, containers were thinned to two uniform plants. Non-transgenic lines were thinned to two uniform plants per container.
(§4) Results are expressed below in Table 11 as the mean of four replications.

GAT-HRA soybeans = test: as above; type: in vivo, soybean; settings: postemergence, glyphosate 8960, tribenuron-methyl 35, rimsulfuron 35 g/ha
Protocol: as §2, §3, §4

[4] = system: Non-glyphosate resistant Conyza (Welgevallen-paraquat resistant); test: Control of hairy fleabane by glyphosate, metsulfuron-methyl and two additives; type: in vivo, Conyza bonariensis; settings: glyphosate on its own; 10-15 leaf stage
Protocol: This example included the same treatments as used in Example 11, except the treatments were carried out on a glyphosate sensitive biotype of Kleinskraalhans (Conyza bonariensis). […] In this example, however, ammonium sulfate-based adjuvant (ADD-UP®) preformed better than bispyribac-sodium (VELOCITY®) with the mixture.
• Biotype: Non-glyphosate resistant Conyza (Welgevallen-paraquat resistant) • Growth Stage: 10-15 leaf stage • Condtions: Cool and sunny • Volume rate: 200 L ha^−1 • glyphosate (ROUNDUP): 360 g a.i. L^−1

[5] = system: non-transformed GS3 embryos; test: Glyphosate kill curve on culture media; type: cell-based, maize; settings: about 40 days culture
Protocol: A glyphosate kill curve was established by testing non-transformed embryos response on media with different levels of glyphosate. GS3 embryos were isolated from an immature ear and placed onto media containing glyphosate at 0.0, 0.5, 1.0, and 2.0 mM. After about 40 days culture, the response of the embryos were observed and recorded. Similarly, infected GS3 embryos with the GAT construct were placed onto media containing glyphosate at 0.0, 0.5, 1.0, and 2.0 mM. After about 40 days culture, the response of the infected embryos were observed and recorded (FIG. 7).

[6] = system: parent elite stiff stalk inbred corn; test: Postemergence herbicide application in greenhouse: fresh shoot weight and visual injury; type: in vivo
[7] = system: Heterozygous GAT-HRA corn; test: as above; type: in vivo
STS ® soybeans = test: Postemergence herbicide treatment of soybeans in greenhouse, visual injury; type: in vivo, soybean
Source text: When possible, containers were thinned to two uniform plants.

[8] = Zea mays, post-emergence, […], read-out: % Visual Injury

O=C(O)CNCP(=O)(O)O [Glyphosate, N-phosphonomethylglycine]
transgenic plants showing no deleterious symptoms [1]: approximately 50%
damage to untransformed control plants [2]: dead
% Visual Injury ([3]; Wild Type line 82): 100%
% Visual Injury ([3]; Wild Type line Jack): 100%
% Visual Injury ([3]; Wild Type, mean): 100%
% Visual Injury (GAT-HRA soybeans; event 59, mean): 38%
% Visual Injury (GAT-HRA soybeans; event 59 line 21): 40%
% Visual Injury (GAT-HRA soybeans; event 59 line 28): 37%
% Visual Injury (GAT-HRA soybeans; event 60, mean): 15%
% Visual Injury (GAT-HRA soybeans; event 60 line 07): 19%
% Visual Injury (GAT-HRA soybeans; event 60 line 11): 11%
% Visual Injury (GAT-HRA soybeans; event 60 line 22): 11%
% Visual Injury (GAT-HRA soybeans; event 60 line 35): 9%
% Visual Injury (GAT-HRA soybeans; event 60 line 41): 13%
% Visual Injury (GAT-HRA soybeans; event 60 line 46): 20%
% Visual Injury (GAT-HRA soybeans; event 60 line 70): 9%
% Visual Injury (GAT-HRA soybeans; event 60 line 75): 14%
% Visual Injury (GAT-HRA soybeans; event 60 line 77): 19%
% Visual Injury (GAT-HRA soybeans; event 60 line 79): 18%
% Visual Injury (GAT-HRA soybeans; event 60 line 82): 20%
% Visual Injury (GAT-HRA soybeans; event 60 line 84): 22%
% Visual Injury (GAT-HRA soybeans; event 61, mean): 20%
% Visual Injury (GAT-HRA soybeans; event 61 line 02): 10%
% Visual Injury (GAT-HRA soybeans; event 61 line 02B): 10%
% Visual Injury (GAT-HRA soybeans; event 61 line 05): 11%
% Visual Injury (GAT-HRA soybeans; event 61 line 14): 10%
% Visual Injury (GAT-HRA soybeans; event 61 line 18): 10%
% Visual Injury (GAT-HRA soybeans; event 61 line 24): 60%
% Visual Injury (GAT-HRA soybeans; event 61 line 33): 84%
% Visual Injury (GAT-HRA soybeans; event 61 line 34): 23%
% Visual Injury (GAT-HRA soybeans; event 61 line 47): 15%
% Visual Injury (GAT-HRA soybeans; event 61 line 49): 9%
% Visual Injury (GAT-HRA soybeans; event 61 line 51): 10%
% Visual Injury (GAT-HRA soybeans; event 61 line 60): 16%
% Visual Injury (GAT-HRA soybeans; event 61 line 62): 6%
% Visual Injury (GAT-HRA soybeans; event 61 line 99): 10%
% Visual Injury (GAT-HRA soybeans; event 64, mean): 14%
% Visual Injury (GAT-HRA soybeans; event 64 line 41): 20%
% Visual Injury (GAT-HRA soybeans; event 64 line 47): 10%
plants killed [4]: 1 out of 16
plants killed, percentage in brackets [4]: 12%
callus growth of embryos ([5]; media containing 1.0 and 2.0 mM glyphosate): very little callus growth
embryos showing callus initiation ([5]; medium with 0.5 mM glyphosate): about half
pest or weed control at 200 g/ha [6, 8]: 100%
Fresh Weight ([6]; postemergence, 200 g/ha (glyphosate 3472 g ae/ha, glufosinate ammonium 1870 g/ha), weighed 2 weeks after treatment, mean of four replications, untreated 76.4 g): 1.0 g
pest or weed control at 200 g/ha [7, 8]: 10%
Fresh Weight ([7]; postemergence, 200 g/ha (glyphosate 3472 g ae/ha, glufosinate ammonium 1870 g/ha), weighed 2 weeks after treatment, mean of four replications, untreated 98.8 g): 97.4 g
% Visual Injury (STS ® soybeans; STS ® line 25, glyphosate 8960, tribenuron-methyl 35, rimsulfuron 35 g/ha): 100%
% Visual Injury (STS ® soybeans; STS ® line 46, glyphosate 8960, tribenuron-methyl 35, rimsulfuron 35 g/ha): 100%
% Visual Injury (STS ® soybeans; STS ®, mean, glyphosate 8960, tribenuron-methyl 35, rimsulfuron 35 g/ha): 100%
